Experimental data from patent publication US8778871B2 (Takeda Pharmaceutical Company Limited, priority 2004, dated 2014).
Non-standard residues stand in square brackets, D forms with d. Primed or numbered codes have the meaning given here. No end group written: not given here. *: point of attachment. Phe(4-F) = N[C@@H](Cc1ccc(F)cc1)C(=O)O; Arg(Me) = CNC(=N)NCCC[C@H](N)C(=O)O; Adipoyl′ = not defined here; Orn = NCCC[C@H](N)C(=O)O; Nva = CCC[C@H](N)C(=O)O; Butyryl = CCCC(=O)*; Bz = O=C(c1ccccc1)*; azaGly = NNC(=O)O

Assays:
hOT7T175 [1] = molecular target: T1, hOT7T175 (Homo sapiens, UniProt Q969F8); test: Intracellular Ca ion level-increasing activity using FLIPR (180 seconds; specific activity to Metastin (1-54)); assay type: cell-based; conditions: hOT7T175/CHO, change in intracellular calcium ion level for 180 seconds, Tables 21-23
T1 construct: expressed in transfected cells
T1 sequence (Q969F8 whole entry L364H): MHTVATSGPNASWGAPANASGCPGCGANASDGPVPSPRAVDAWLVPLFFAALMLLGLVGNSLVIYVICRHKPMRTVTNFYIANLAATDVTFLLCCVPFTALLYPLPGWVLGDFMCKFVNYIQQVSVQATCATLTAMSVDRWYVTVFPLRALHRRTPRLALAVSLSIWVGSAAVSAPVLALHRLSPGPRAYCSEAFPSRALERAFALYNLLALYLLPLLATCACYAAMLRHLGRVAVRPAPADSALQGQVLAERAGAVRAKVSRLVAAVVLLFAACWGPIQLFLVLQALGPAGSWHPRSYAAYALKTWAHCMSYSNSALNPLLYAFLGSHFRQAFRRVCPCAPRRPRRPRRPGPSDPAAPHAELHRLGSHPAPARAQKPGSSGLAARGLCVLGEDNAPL

[2] = Action of reducing testosterone level in blood in mature male rat (1 mM peptide in 50% DMSO, ALZET osmotic pump); assay type: in vivo; conditions: 1 mM peptide in 50% DMSO aqueous solution, ALZET osmotic pump s.c., six days
Experimental: The peptide was encapsulated in five ALZET osmotic pump (Model 2001, 0.2 ml of volume, releasing rate 0.001 ml/hr, DURECT Corporation). The ALZET pumps encapsulated with the peptide solution were implanted to dorsal subcutaneous of five male CD (SD) IGS rat at nine weeks age (Charles River Japan, Inc.) anesthesized with ether for one pump to one rat. Separately, for negative controls, the ALZET osmotic pumps encapsulated with distilled water were implanted to five male CD (SD) IGS rat (Charles River Japan, Inc.) The rats were bred for six days under the normal conditions. After weighing, blood was collected by decapitation. To 1 ml of blood, 0.03 ml of aprotinin (Trasylol, Byer) solution containing 0.1 g/ml EDTA 2Na was added. The plasma was isolated by centrifugation at 1,800×g for 25 minutes and collected. The thus obtained plasma, 0.05 ml was effected by radioimmunoassay. (DPC Total Testosterone Kit, Diagnostic Products Corporation) to measure testosterone level in blood of each rat. The value beneath measuring limit of radioimmunoassay (0.04 ng/ml as concentration of plasma) was treated as zero. The mean values for testosterone level of five rats, to which the peptide was given, was calculated and the relative value (percentage) for the mean values of testosterone level of five rats, to which distilled watrer was given, was estimated.

hOT7T175 [3] = molecular target: T2, hOT7T175 (Homo sapiens, UniProt Q969F8, L364H); assay type: cell-based; conditions: hOT7T175/CHO, FLIPR, evaluation for 40 seconds after initiation of the reaction
T2 construct: expressed in transfected cells
T2 sequence (Q969F8 whole entry L364H): as above
Experimental: The intracellular Ca ion level-increasing activity was measured using FLIPR as in TEST EXAMPLE 2.

[4] = Blood testosterone level decreasing effect in mature male rat (0.1 mM peptide solution); assay type: in vivo
Experimental: This peptide solution was filled in 5 ALZET osmotic pumps (Model 2001, 0.2 ml in volume, release rate: 0.001 ml/hr, DURECT Corporation). The ALZET pumps filled with the peptide solution were implanted subcutaneously in 5 CD(SD)IGS male rats of 9 weeks old after birth (Charles River Japan, Inc.) on the back under ether anesthesia by one pump for one animal. For negative control, distilled water (Otsuka Pharmaceutical Co., Ltd.) was filled in 5 ALZET osmotic pumps, which were similarly implanted in 5 male CD(SD)IGS rats (Charles River Japan, Inc.), respectively. These pump-implanted rats were fed for 6 days under normal feeding conditions. After weighing, the animal was decapitated to collect blood. After 0.03 ml/ml blood of aprotinin solution (Trasylol, Bayer) containing 0.1 mg/ml EDTA.2Na was added to blood, the mixture was centrifuged at 1,800 G for 25 minutes to isolate/recover plasma. From the plasma obtained, 0.05 ml was applied to radioimmunoassay (DPC.Total Testosterone Kit, Diagnostic Products Corporation) to measure the plasma testosterone level of each rat. The value below the limit of measurement (0.04 ng/ml of plasma level) in radioimmunoassay was treated as 0. A mean value of the testosterone levels from 5 rats receiving the peptide was calculated and a relative value (percent) of the mean value to a mean value from 5 rats receiving distilled water.
In a manner similar to TEST EXAMPLE 14, evaluation was made using 0.1 mM peptide solution and a part of the results obtained are shown in TABLE 30.

Row | Substance | intracellular Ca ion level-increasing activity [specific activity to Metastin (1-54)] (hOT7T175 [1]) | Testosterone level in Blood [2] [%] | Specific Act. (EC50/MS10 EC50) (hOT7T175 [3]) | Teststerone level in Blood [4] [%]
1 | D-Tyr-D-Pya(4)-Asn-Thr-Phe-AzaGly-Leu-Arg(Me)-Trp-NH2 [Compound No. 501] | 10 | 2 | 1.1 | –
2 | Cyclopropanecarbonyl-D-Tyr-D-Trp-Asn-Thr-Phe-AzaGly-Leu-Arg(Me)-Trp-NH2 [Compound No. 566] | – | – | 0.8 | 89
3 | Ac-D-Tyr-D-Pya(4)-Asn-Thr-Phe-AzaGly-Leu-Arg(Me)-Trp-NH2 [Compound No. 562] | – | – | 1.0 | 11
4 | Ac-[dY][dW]NSF[azaGly]L[Arg(Me)]W-NH2 [Compound No. 558] | – | – | 0.4 | 2
5 | Butyryl-[dY][dW]NTF[azaGly]L[Arg(Me)]W-NH2 [Compound No. 567] | – | – | 0.8 | 86
6 | Bz-NT[Phe(4-F)][azaGly]L[Arg(Me)]W-NH2 [Compound No. 523] | – | – | 1.1 | 72
7 | Bz-[dY][dW]NTF[azaGly]L[Arg(Me)]W-NH2 [Compound No. 565] | – | – | 0.6 | 80
8 | [dY][dW]NSF[azaGly]L[Arg(Me)]W-NH2 [Compound No. 540] | – | – | 0.7 | 55
9 | D-Nle-Acp-D-Tyr-D-Trp-Asn-Thr-Phe-AzaGly-Leu-Arg(Me)-Trp-NH2 [Compound No. 553] | – | – | 1.9 | 39
10 | D-Tyr-D-Pya(4)-Asn-Ser(Ac)-Phe-AzaGly-Leu-Arg(Me)-Trp-NH2 [Compound No. 547] | – | – | 2.5 | 65
11 | Ac-D-Arg-Acp-D-Tyr-D-Trp-Asn-Thr-Phe-AzaGly-Leu-Arg(Me)-Trp-NH2 [Compound No. 551] | – | – | 1.2 | 8
12 | 3-(4-Hydroxyphenyl)propionyl-D-Trp-Asn-Thr-Phe-AzaGly-Leu-Arg(Me)-Trp-NH2 [Compound No. 559] | – | – | 0.3 | 17
13 | Arg-Acp-D-Tyr-D-Pya(4)-Asn-Ser-Phe-AzaGly-Leu-Arg(Me)-Trp-NH2 [Compound No. 538] | – | – | 3.3 | 45
14 | Ac-[dY][dW]NTF[azaGly]L[Arg(Me)]W-NH2 [Compound No. 550] | – | – | 0.7 | 2
15 | Ac-D-Tyr-D-Pya(4)-Asn-Ser-Phe-AzaGly-Leu-Arg(Me)-Phe-NH2 [Compound No. 516] | – | – | 3.7 | 3
16 | D-Tyr-D-Tyr-D-Trp-Asn-Thr-Phe-AzaGly-Leu-Arg(Me)-Trp-NH2 ([dY][dY][dW]NTF[azaGly]L[Arg(Me)]W-NH2; N-terminus assumed; SMILES CNC(=N)NCCC[C@H](NC(=O)[C@H](CC(C)C)NC(=O)NNC(=O)[C@H](Cc1ccccc1)NC(=O)[C@@H](NC(=O)[C@H](CC(N)=O)NC(=O)[C@@H](Cc1c[nH]c2ccccc12)NC(=O)[C@@H](Cc1ccc(O)cc1)NC(=O)[C@H](N)Cc1ccc(O)cc1)[C@@H](C)O)C(=O)N[C@@H](Cc1c[nH]c2ccccc12)C(N)=O) [Compound No. 650] | – | 2 | 0.6 | –

Row | Substance | intracellular Ca ion level-increasing activity [specific activity to Metastin (1-54)] (hOT7T175 [1]) | Testosterone level in Blood [2] [%] | Specific Act. (EC50/MS10 EC50) (hOT7T175 [3]) | Teststerone level in Blood [4] [%]
17 | Adipoyl-D-Trp-Asn-Thr-Phe-AzaGly-Leu-Arg(Me)-Trp-NH2 ({Adipoyl′}-[dW]NTF[azaGly]L[Arg(Me)]W-NH2) [Compound No. 671] | – | 2 | 3.6 | –
18 | Ac-D-Tyr-D-Pya(2)-Asn-Thr-Phe-AzaGly-Leu-Arg(Me)-Trp-NH2 [Compound No. 658] | – | 2 | 0.4 | –
19 | Ac-[dL][dW]NTF[azaGly]L[Arg(Me)]W-NH2 [Compound No. 617] | – | 2 | 2.4 | –
20 | Ac-D-Tyr-D-Trp-Asn-Thr-Pya(4)-AzaGly-Leu-Arg(Me)-Trp-NH2 [Compound No. 635] | – | 2 | 1.4 | –
21 | Ac-[dY][dW]NTF[azaGly]L[Orn]W-NH2 [Compound No. 599] | – | 2 | 0.5 | –
22 | Ac-[dY][dA]NTF[azaGly]L[Arg(Me)]W-NH2 [Compound No. 625] | – | 2 | 2.8 | –
23 | Ac-[dY][dW]NTF[azaGly]LRW-NH2 [Compound No. 600] | – | 2 | 0.3 | –
24 | Ac-[dK][dW]NTF[azaGly]L[Arg(Me)]W-NH2 [Compound No. 621] | – | 2 | 1.9 | –
25 | G[dY][dW]NTF[azaGly]L[Arg(Me)]W-NH2 [Compound No. 648] | – | 2 | 1.6 | –
26 | Ac-Tyr-D-Tyr-D-Trp-Asn-Thr-Phe-AzaGly-Leu-Arg(Me)-Trp-NH2 (Ac-Y[dY][dW]NTF[azaGly]L[Arg(Me)]W-NH2; SMILES CNC(=N)NCCC[C@H](NC(=O)[C@H](CC(C)C)NC(=O)NNC(=O)[C@H](Cc1ccccc1)NC(=O)[C@@H](NC(=O)[C@H](CC(N)=O)NC(=O)[C@@H](Cc1c[nH]c2ccccc12)NC(=O)[C@@H](Cc1ccc(O)cc1)NC(=O)[C@H](Cc1ccc(O)cc1)NC(C)=O)[C@@H](C)O)C(=O)N[C@@H](Cc1c[nH]c2ccccc12)C(N)=O) [Compound No. 676] | – | 2 | 1.4 | –
27 | Ac-Y[dW]NTF[azaGly]L[Arg(Me)]W-NH2 [Compound No. 615] | – | 2 | 0.7 | –
28 | Tyr-D-Tyr-D-Trp-Asn-Thr-Phe-AzaGly-Leu-Arg(Me)-Trp-NH2 (Y[dY][dW]NTF[azaGly]L[Arg(Me)]W-NH2; N-terminus assumed; SMILES CNC(=N)NCCC[C@H](NC(=O)[C@H](CC(C)C)NC(=O)NNC(=O)[C@H](Cc1ccccc1)NC(=O)[C@@H](NC(=O)[C@H](CC(N)=O)NC(=O)[C@@H](Cc1c[nH]c2ccccc12)NC(=O)[C@@H](Cc1ccc(O)cc1)NC(=O)[C@@H](N)Cc1ccc(O)cc1)[C@@H](C)O)C(=O)N[C@@H](Cc1c[nH]c2ccccc12)C(N)=O) [Compound No. 675] | – | 2 | 0.8 | –
29 | Ac-D-Tyr-D-Pya(3)-Asn-Thr-Phe-AzaGly-Leu-Arg(Me)-Trp-NH2 [Compound No. 660] | – | 2 | 1.1 | –
30 | Ac-D-Tyr-D-Trp-Asn-Thr-Phe-AzaGly-Nva-Arg(Me)-Trp-NH2 (Ac-[dY][dW]NTF[azaGly][Nva][Arg(Me)]W-NH2; SMILES CCC[C@H](NC(=O)NNC(=O)[C@H](Cc1ccccc1)NC(=O)[C@@H](NC(=O)[C@H](CC(N)=O)NC(=O)[C@@H](Cc1c[nH]c2ccccc12)NC(=O)[C@@H](Cc1ccc(O)cc1)NC(C)=O)[C@@H](C)O)C(=O)N[C@@H](CCCNC(=N)NC)C(=O)N[C@@H](Cc1c[nH]c2ccccc12)C(N)=O) [Compound No. 677] | – | 2 | 0.3 | –
31 | 6-Aminocaproyl-D-Trp-Asn-Thr-Phe-AzaGly-Leu-Arg(Me)-Trp-NH2 ({6‑Aminocaproyl}-[dW]NTF[azaGly]L[Arg(Me)]W-NH2) [Compound No. 674] | – | 2 | 2 | –
